{"source": "ChEMBL document CHEMBL1201862", "about": "“PubChem BioAssay data set” (2004)", "experiment_in_all_cases": "NCI tumour cell line growth inhibition, 48 h", "key": {"[1]": {"system": "786-0"}, "[2]": {"system": "A549"}, "[3]": {"system": "ACHN"}, "[4]": {"system": "BT-549"}, "[5]": {"system": "CCRF-CEM"}, "[6]": {"system": "COLO 205"}, "[7]": {"system": "DU-145"}, "[8]": {"system": "HCC 2998"}, "[9]": {"system": "HCT-116"}, "[10]": {"system": "HCT-15"}, "[11]": {"system": "HL-60"}, "[12]": {"system": "HOP-62"}, "[13]": {"system": "HOP-92"}, "[14]": {"system": "HT-29"}, "[15]": {"system": "Hs-578T"}, "[16]": {"system": "IGROV-1"}, "[17]": {"system": "K562"}, "[18]": {"system": "KM12"}, "[19]": {"system": "LOX IMVI"}, "[20]": {"system": "M14"}, "[21]": {"system": "MCF7"}, "[22]": {"system": "MDA-MB-231"}, "[23]": {"system": "MDA-MB-435"}, "[24]": {"system": "MDA-N"}, "[25]": {"system": "MOLT-4"}, "[26]": {"system": "Malme-3M"}, "[27]": {"system": "NCI-H226"}, "[28]": {"system": "NCI-H23"}, "[29]": {"system": "NCI-H460"}, "[30]": {"system": "NCI-H522"}, "[31]": {"system": "OVCAR-3"}, "[32]": {"system": "OVCAR-4"}, "[33]": {"system": "OVCAR-8"}, "[34]": {"system": "RPMI-8226"}, "[35]": {"system": "RXF 393"}, "[36]": {"system": "SF-268"}, "[37]": {"system": "SF-295"}, "[38]": {"system": "SF-539"}, "[39]": {"system": "SK-MEL-28"}, "[40]": {"system": "SK-MEL-2"}, "[41]": {"system": "SK-MEL-5"}, "[42]": {"system": "SN12C"}, "[43]": {"system": "SNB-19"}, "[44]": {"system": "SNB-75"}, "[45]": {"system": "SR"}, "[46]": {"system": "SW-620"}, "[47]": {"system": "T47D"}, "[48]": {"system": "TK-10"}, "[49]": {"system": "U-251"}, "[50]": {"system": "UACC-62"}, "[51]": {"system": "UO-31"}, "[52]": {"system": "A498"}, "[53]": {"system": "EKVX"}, "[54]": {"system": "NCI/ADR-RES"}, "[55]": {"system": "OVCAR-5"}, "[56]": {"system": "PC-3"}, "[57]": {"system": "SK-OV-3"}, "[58]": {"system": "UACC-257"}}, "note": "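Assay format: 96-well plates, 48-hour exposure. GI50 = concentration required for 50% inhibition of growth.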 Active and inactive are the calls of the source. Cut-off read from the data, not from the text of the source: active = GI50 up to about 1.1 µM and inactive = higher."}
{"smiles": "CCCCCCCCCCCCCCCCOCC(COP(=O)([O-])OCC[n+]1ccc(N(C)C)cc1)OCC", "note": "(centres undefined)", "values": [{"measurement": "GI50", "setting": "[1]", "result": "18 µM (inactive)"}, {"measurement": "GI50", "setting": "[2]", "result": "16.2 µM (inactive)"}, {"measurement": "GI50", "setting": "[3]", "result": "16.8 µM (inactive)"}, {"measurement": "GI50", "setting": "[4]", "result": "7.74 µM (inactive)"}, {"measurement": "GI50", "setting": "[5]", "result": "10.5 µM (inactive)"}, {"measurement": "GI50", "setting": "[6]", "result": "13.6 µM (inactive)"}, {"measurement": "GI50", "setting": "[7]", "result": "16.5 µM (inactive)"}, {"measurement": "GI50", "setting": "[8]", "result": "13.7 µM (inactive)"}, {"measurement": "GI50", "setting": "[9]", "result": "11.3 µM (inactive)"}, {"measurement": "GI50", "setting": "[10]", "result": 18.2, "unit": "µM"}, {"measurement": "GI50", "setting": "[11]", "result": "1.52 µM (inactive)"}, {"measurement": "GI50", "setting": "[12]", "result": "12.3 µM (inactive)"}, {"measurement": "GI50", "setting": "[13]", "result": "17 µM (inactive)"}, {"measurement": "GI50", "setting": "[14]", "result": "13.9 µM (inactive)"}, {"measurement": "GI50", "setting": "[15]", "result": "17.9 µM (inactive)"}, {"measurement": "GI50", "setting": "[16]", "result": "16.9 µM (inactive)"}, {"measurement": "GI50", "setting": "[17]", "result": "19.3 µM (inactive)"}, {"measurement": "GI50", "setting": "[18]", "result": "0.0527 µM (active)"}, {"measurement": "GI50", "setting": "[19]", "result": "12.6 µM (inactive)"}, {"measurement": "GI50", "setting": "[20]", "result": "12.4 µM (inactive)"}, {"measurement": "GI50", "setting": "[21]", "result": "19.2 µM (inactive)"}, {"measurement": "GI50", "setting": "[22]", "result": "8.55 µM (inactive)"}, {"measurement": "GI50", "setting": "[23]", "result": "17.7 µM (inactive)"}, {"measurement": "GI50", "setting": "[24]", "result": "17 µM (inactive)"}, {"measurement": "GI50", "setting": "[25]", "result": "4.52 µM (inactive)"}, {"measurement": "GI50", "setting": "[26]", "result": "18.5 µM (inactive)"}, {"measurement": "GI50", "setting": "[27]", "result": "17.2 µM (inactive)"}, {"measurement": "GI50", "setting": "[28]", "result": "18.6 µM (inactive)"}, {"measurement": "GI50", "setting": "[29]", "result": "12.1 µM (inactive)"}, {"measurement": "GI50", "setting": "[30]", "result": "12.8 µM (inactive)"}, {"measurement": "GI50", "setting": "[31]", "result": "11.4 µM (inactive)"}, {"measurement": "GI50", "setting": "[32]", "result": "15.8 µM (inactive)"}, {"measurement": "GI50", "setting": "[33]", "result": "19.5 µM (inactive)"}, {"measurement": "GI50", "setting": "[34]", "result": "4.12 µM (inactive)"}, {"measurement": "GI50", "setting": "[35]", "result": "16.3 µM (inactive)"}, {"measurement": "GI50", "setting": "[36]", "result": "10.8 µM (inactive)"}, {"measurement": "GI50", "setting": "[37]", "result": "16.5 µM (inactive)"}, {"measurement": "GI50", "setting": "[38]", "result": "13.5 µM (inactive)"}, {"measurement": "GI50", "setting": "[39]", "result": "17.6 µM (inactive)"}, {"measurement": "GI50", "setting": "[40]", "result": "13.4 µM (inactive)"}, {"measurement": "GI50", "setting": "[41]", "result": "17.8 µM (inactive)"}, {"measurement": "GI50", "setting": "[42]", "result": "19.7 µM (inactive)"}, {"measurement": "GI50", "setting": "[43]", "result": "2.8 µM (inactive)"}, {"measurement": "GI50", "setting": "[44]", "result": "2.97 µM (inactive)"}, {"measurement": "GI50", "setting": "[45]", "result": "4.95 µM (inactive)"}, {"measurement": "GI50", "setting": "[46]", "result": "18.3 µM (inactive)"}, {"measurement": "GI50", "setting": "[47]", "result": "18 µM (inactive)"}, {"measurement": "GI50", "setting": "[48]", "result": "14.9 µM (inactive)"}, {"measurement": "GI50", "setting": "[49]", "result": "11.7 µM (inactive)"}, {"measurement": "GI50", "setting": "[50]", "result": "12.7 µM (inactive)"}, {"measurement": "GI50", "setting": "[51]", "result": "15.5 µM (inactive)"}]}
{"smiles": "CON(C)C(=O)C(C)NC(=O)OC(C)(C)C", "note": "(centres undefined)", "values": [{"measurement": "GI50", "setting": "[1]", "result": "> 100 µM (inactive)"}, {"measurement": "GI50", "setting": "[52]", "result": "> 100 µM (inactive)"}, {"measurement": "GI50", "setting": "[2]", "result": "> 100 µM (inactive)"}, {"measurement": "GI50", "setting": "[3]", "result": "> 100 µM (inactive)"}, {"measurement": "GI50", "setting": "[4]", "result": "> 100 µM (inactive)"}, {"measurement": "GI50", "setting": "[5]", "result": "> 100 µM (inactive)"}, {"measurement": "GI50", "setting": "[6]", "result": "> 100 µM (inactive)"}, {"measurement": "GI50", "setting": "[7]", "result": "> 100 µM (inactive)"}, {"measurement": "GI50", "setting": "[53]", "result": "> 100 µM (inactive)"}, {"measurement": "GI50", "setting": "[8]", "result": "> 100 µM (inactive)"}, {"measurement": "GI50", "setting": "[9]", "result": "> 100 µM (inactive)"}, {"measurement": "GI50", "setting": "[10]", "result": "> 100", "unit": "µM"}, {"measurement": "GI50", "setting": "[11]", "result": "> 100 µM (inactive)"}, {"measurement": "GI50", "setting": "[12]", "result": "> 100 µM (inactive)"}, {"measurement": "GI50", "setting": "[13]", "result": "> 100 µM (inactive)"}, {"measurement": "GI50", "setting": "[14]", "result": "> 100 µM (inactive)"}, {"measurement": "GI50", "setting": "[15]", "result": "> 100 µM (inactive)"}, {"measurement": "GI50", "setting": "[16]", "result": "> 100 µM (inactive)"}, {"measurement": "GI50", "setting": "[17]", "result": "> 100 µM (inactive)"}, {"measurement": "GI50", "setting": "[18]", "result": "> 100 µM (inactive)"}, {"measurement": "GI50", "setting": "[20]", "result": "> 100 µM (inactive)"}, {"measurement": "GI50", "setting": "[21]", "result": "> 100 µM (inactive)"}, {"measurement": "GI50", "setting": "[23]", "result": "> 100 µM (inactive)"}, {"measurement": "GI50", "setting": "[24]", "result": "> 100 µM (inactive)"}, {"measurement": "GI50", "setting": "[25]", "result": "> 100 µM (inactive)"}, {"measurement": "GI50", "setting": "[26]", "result": "> 100 µM (inactive)"}, {"measurement": "GI50", "setting": "[27]", "result": "> 100 µM (inactive)"}, {"measurement": "GI50", "setting": "[28]", "result": "> 100 µM (inactive)"}, {"measurement": "GI50", "setting": "[29]", "result": "> 100 µM (inactive)"}, {"measurement": "GI50", "setting": "[54]", "result": "> 100 µM (inactive)"}, {"measurement": "GI50", "setting": "[31]", "result": "> 100 µM (inactive)"}, {"measurement": "GI50", "setting": "[55]", "result": "> 100 µM (inactive)"}, {"measurement": "GI50", "setting": "[33]", "result": "> 100 µM (inactive)"}, {"measurement": "GI50", "setting": "[56]", "result": "> 100 µM (inactive)"}, {"measurement": "GI50", "setting": "[34]", "result": "> 100 µM (inactive)"}, {"measurement": "GI50", "setting": "[35]", "result": "> 100 µM (inactive)"}, {"measurement": "GI50", "setting": "[36]", "result": "> 100 µM (inactive)"}, {"measurement": "GI50", "setting": "[37]", "result": "> 100 µM (inactive)"}, {"measurement": "GI50", "setting": "[38]", "result": "> 100 µM (inactive)"}, {"measurement": "GI50", "setting": "[39]", "result": "> 100 µM (inactive)"}, {"measurement": "GI50", "setting": "[41]", "result": "> 100 µM (inactive)"}, {"measurement": "GI50", "setting": "[57]", "result": "> 100 µM (inactive)"}, {"measurement": "GI50", "setting": "[42]", "result": "> 100 µM (inactive)"}, {"measurement": "GI50", "setting": "[43]", "result": "> 100 µM (inactive)"}, {"measurement": "GI50", "setting": "[44]", "result": "> 100 µM (inactive)"}, {"measurement": "GI50", "setting": "[45]", "result": "> 100 µM (inactive)"}, {"measurement": "GI50", "setting": "[46]", "result": "> 100 µM (inactive)"}, {"measurement": "GI50", "setting": "[47]", "result": "> 100 µM (inactive)"}, {"measurement": "GI50", "setting": "[48]", "result": "> 100 µM (inactive)"}, {"measurement": "GI50", "setting": "[49]", "result": "> 100 µM (inactive)"}, {"measurement": "GI50", "setting": "[58]", "result": "> 100 µM (inactive)"}, {"measurement": "GI50", "setting": "[50]", "result": "> 100 µM (inactive)"}, {"measurement": "GI50", "setting": "[51]", "result": "> 100 µM (inactive)"}]}
